Consider 87 compounds from PubChem BioAssay AID504765 (Sanford-Burnham Center for Chemical Genomics, 2011).

pIC50: −log10 of the molar value. Activity calls are given as the source filed them. The rule behind the calls is not given here.

The target of this assay is glucose-6-phosphate dehydrogenase-6-phosphogluconolactonase (Plasmodium falciparum 3D7). The experiment in a line: PfG6PD inhibitor potency, dose response, biochemical, fluorescence intensity (AID 504765). The settings on record: Recombinant PfG6PD enzyme, fluorescence intensity (NADPH).

A word on the pIC50: it is the negative decadic logarithm of the IC50, by convention in mol/L. As for `Cc1ccc(S(=O)(=O)/N=C2/C=C(C3C(=O)CC(C)(C)CC3=O)C(=O)c3ccccc32)cc1`, the pIC50 is 4.85.
Take `COc1cc(N=Cc2c(CO)cnc(C)c2O)cc(OC)c1OC`: the pIC50 was 4.71.
On to `COc1cccc(C(=O)Nc2nnc(C(C)C)s2)c1`, for which the negative logarithm of the IC50 (pIC50) is 5.23.
On the same count and under the same terms, the figure for `COc1cc(NCCCn2ccc(NC(=O)OCc3ccccc3)nc2=O)cc(OC)c1OC` is 4.75.
Turning to `C[C@H](NC(=O)c1cc2c(cn1)[nH]c1ccccc12)C(=O)O`, the IC50 entry is “inactive”.
On the same count and under the same terms, the entry for `CC1(C)Nc2ccc(O)cc2-c2c1ssc2=S` is “inactive”.
As for `COc1ccc(C(=O)c2c(C(F)(F)F)oc3c2C(=O)c2ccccc2C3=O)cc1`, the IC50 result is “inactive”.
Regarding `COc1ccc(NC(=S)N(CCC(C)C)C2CCN(C(C)C)CC2)cc1Cl`, the pIC50 is 4.84.
Regarding `O=C(CN1CCN(c2ccc(O)cc2)CC1)Nc1cc(S(=O)(=O)N2CCOCC2)ccc1Cl`, the IC50 entry is “inactive”.
Take `CN1/C(=C\C(=O)c2cccs2)Sc2ccccc21`: the pIC50 is 5.13.
With `COc1cc(/C=C2\SC(c3ccc(C)cc3)=NC2=O)cc(OC)c1O`, the negative-log IC50 (pIC50) was 5.03.
Regarding `Cn1c(=O)c2c([nH]c(=S)n2CCCc2ccccc2)n(C)c1=O`, the pIC50 is 4.71.
Still for that read-out and setting: the figure for `COc1c(O)c(O)c2oc(-c3ccccc3)cc(=O)c2c1OC` is 4.97.
On to `Cc1cccc(NC2=C(NC(=O)c3ccccc3)C(=O)c3ccccc3C2=O)c1`, for which the pIC50 was 4.97.
As for `COc1ccc(NS(=O)(=O)c2ccc(N3CCCC3)c(NC(=S)Nc3cccc(C)c3C)c2)cc1`, the IC50 result was “inactive”.
In the case of `CCOC(=O)Cc1cc(=O)n2[nH]c(C(C)(C)C)cc2n1`, the pIC50 was 5.15.
Take `O=C(Nc1ccc(N2CCCC2)cc1)c1cccc(-c2cc3ccccc3oc2=O)c1`: the IC50 entry is “inactive”.
Same read-out and setting: the entry for `CCCCOc1ccc(Cc2n[nH]c(=S)n2N)cc1` is “inactive”.
Turning to `CCc1ccc(OCC(=O)N/N=C/c2cc([N+](=O)[O-])ccc2N2CCOCC2)cc1`, the pIC50 was 5.08.
As to `Cc1ccc(-c2c(C(=O)N/N=C/c3ccsc3)nnn2-c2nonc2N)cc1`, the IC50 entry is “inactive”.
Take `O=c1c2ccccc2sn1-c1ccccc1F`: the pIC50 is 5.19.
`Nn1c(CSc2nc3ccccc3o2)nnc1CSc1nc2ccccc2o1`: the pIC50 is 4.94.
With `Cc1cc(N=NC(=O)c2ccccc2O)c2ccccc2c1O`, the IC50 entry is “inactive”.
Still for that read-out and setting: the entry for `COc1ccc(NC2CCCN(Cc3cccc4cnccc34)C2)cc1OC` (configuration not stated) is “inactive”.
`CCn1c2ccccc2c2cc(/C=N/n3cn[nH]c3=S)ccc21`: the pIC50 is 5.01.
Regarding `O=C(Sc1n[nH]c(=O)[nH]c1=O)c1ccccc1`, the pIC50 is 5.48.
The same measure, in the same setting: the figure for `O=[N+]([O-])c1ccc2c(c1)-c1ccccc1C2O` (configuration not stated) is 5.61; for `O=C1C=CC2=C3c4cc(O)c(O)cc4CC3(O)COC2=C1O` (configuration not stated) it is 5.19; for `S=c1ncc2[nH]c(=S)[nH]c2[nH]1` it is 5.36.
Still for that read-out and setting: the figure for `Cc1ccc2nc(SCC(=O)NC3CCCc4ccccc43)[nH]c2c1` (configuration not stated) is 5.02; for `O=c1c2cc(F)ccc2sn1-c1ccc(F)cc1` it is 5.65.
Still for that read-out and setting: the figure for `Cc1cccc(C2(c3cccc(C)c3)CC2C(=O)Nc2ccc([N+](=O)[O-])cc2O)c1` (configuration not stated) is 4.88.
On to `CC(SCC(=O)Nc1ccccc1)c1nc2ccccc2c(=O)[nH]1` (configuration not stated), for which the pIC50 is 5.28.
Take `CCc1cc(-c2n[nH]c(C)c2-c2ccccc2Cl)c(O)cc1OC`: the negative logarithm of the IC50 (pIC50) was 5.12.
Still for that read-out and setting: the figure for `CN=c1nc(-c2ccccc2)n(-c2ccccc2)s1` is 5.32; for `COc1cc(CN2CCN(CCCc3ccccc3)C(CCO)C2)cc(OC)c1O` (configuration not stated) it is 5.11.
For the compound `CC(C)c1cc2c(c(O)c1O)[C@@]13CCCC(C)(C)C1CC2OC3=O` (some centres not stated), the pIC50 is 5.31.
Same read-out and setting: the figure for `Cc1ccc(-c2nn(C)c(=O)c3ccccc23)cc1CNC(=O)/C=C/c1ccccc1` is 5.38; for `COc1cc(C(=O)O/N=C2/C=C(C)C(=O)C=C2C)cc(OC)c1OC` it is 4.94; for `Cc1ccc(C(=O)NCC(=O)NCC(=O)OCC(=O)c2ccc([N+](=O)[O-])cc2)cc1` it is 5.23.
On to `Nn1c(SCC(=O)Nc2cccnc2Cl)nnc1-c1ccccc1`, for which the IC50 entry is “inactive”.
As to `CCOC(=O)Nc1ccc(NCc2ccc(F)cc2)nc1N`, the pIC50 was 5.52.
On the same count and under the same terms, the value for `COC1=C(OC)C(=O)C(Sc2ccc3ccccc3c2)=CC1=O` was 6.11; that for `Cc1cccc(C(=O)Nc2nnc(S(=O)(=O)N3CCOCC3)s2)c1` was 5.13.
On the same count and under the same terms, the value for `COc1cc(CN2CCCC(C(=O)c3ccc4c5c(cccc35)CC4)C2)cc(OC)c1O` (configuration not stated) was 5.46; that for `CCOC(=O)c1cnc2ccc(C)cc2c1Sc1ccccc1C(=O)OC` was 4.95.
Still for that read-out and setting: the value for `Fc1cccc(Cl)c1CNc1ccc(N2CCCC2)cc1` was 5.39; that for `CC(=O)OCCCNc1cc(Sc2nc3ccccc3s2)c2nonc2c1[N+](=O)[O-]` was 5.41.
`O=C(CSc1nc2ccccc2[nH]1)NC1CCCc2ccccc21` (configuration not stated): the pIC50 was 4.87.
On the same count and under the same terms, the value for `O=C1CCC[C@@H]2[C@@H](Cc3ccccc3)[C@H](N3CCN(c4ccccc4)CC3)C[C@@H]3CCN1[C@@H]32` was 5.03; that for `CC(=O)Nc1cc([N+](=O)[O-])ccc1OCc1ccccc1` was 4.70.
As for `Oc1ccc(NCc2ccccc2OCc2ccccc2)cc1`, the IC50 entry is “inactive”.
`COc1ccc(CCn2c(NN=C3CCCCC3)nc3c2c(=O)[nH]c(=O)n3C)cc1`: the pIC50 is 5.78.
Still for that read-out and setting: the value for `Clc1cccc(Cl)c1CNc1ccc(N2CCCC2)cc1` was 5.42; that for `Cc1ccc(-c2nc(N)s[n+]2-c2ccccc2)cc1` was 5.04.
Same read-out and setting: the value for `C/C(Cn1nnc([N+](=O)[O-])n1)=N\NC(=O)c1ccccc1O` was 5.13; that for `O=[N+]([O-])c1cccc(SSc2cccc([N+](=O)[O-])c2)c1` was 5.12.
As for `C[C@]12CC[C@@H]3c4cc(O)c(O)cc4CC[C@H]3[C@@H]1CC[C@@H]2O`, the IC50 entry is “inactive”.
As for `CC(CNc1ccccc1O)C(=O)O` (configuration not stated), the pIC50 was 5.21.
Still for that read-out and setting: the value for `Cc1ccc(/C=C/C(=O)NC2CCCCCCC2)o1` was 5.02.
On the same count and under the same terms, the value for `O=C(CNC(=O)c1ccc(Br)cc1)NCC(=O)OCC(=O)c1ccc([N+](=O)[O-])cc1` was 4.74.
Consider `CCC(c1ccc(O)c(O)c1)C(CC)c1ccc(O)c(O)c1` (configuration not stated), for which the IC50 result is “inactive”.
Consider `Cc1nnc(SCC(=O)c2cc(C)n(-c3ccc4c(c3)OCO4)c2C)s1`, for which the negative-log IC50 (pIC50) was 5.13.
The same measure, in the same setting: the figure for `COc1cc(Sc2ccc(C)cc2)c(OC)cc1N` is 5.15; for `COc1cc(O)c(C(=O)O)c(-c2cc(O)c(O)cc2C)c1` it is 5.43.
Still for that read-out and setting: the value for `Cc1cc(C)nc(/N=C(\N)Nc2ccccc2-c2ccccc2)n1` was 5.09.
Still for that read-out and setting: the value for `CCCCC1C(=O)N(c2ccccc2)N(c2ccc(O)cc2)C1=O` (configuration not stated) was 4.90.
`Cc1cc(C)c2c(=O)n(CC(=O)Nc3cccc(F)c3)sc2n1`: the pIC50 is 5.72.
On to `Cn1cc(S(=O)(=O)CC(=O)N2CCc3ccccc32)c2ccccc21`, for which the IC50 entry is “inactive”.
Same read-out and setting: the value for `CN(C)c1ccc(/C=C/c2ccc3c4ccccc4ccc3[n+]2-c2ccccc2)cc1` was “inactive”.
With `Cc1ccc(/C=C/C(=O)NCc2ccc(S(N)(=O)=O)cc2)o1`, the pIC50 was 5.24.
For the compound `O=c1ccsn1Cc1ccccc1`, the pIC50 was 5.64.
Still for that read-out and setting: the figure for `COc1ccc2c(c1)c(=Cc1ccc(N(C)C)cc1)c1cc(-c3ccccc3)[n+](C)n12` is 4.76; for `O=C(Cc1ccccc1)NCC(=O)OCC(=O)c1ccc([N+](=O)[O-])cc1` it is 4.97; for `[O-]/[N+](=C\c1ccncc1)c1ccccc1` it is 5.02.
On to `O=C(CNC(=O)c1ccccc1)NCC(=O)OCC(=O)c1ccc([N+](=O)[O-])cc1`, for which the IC50 entry is “inactive”.
Regarding `CN(C)c1cccc2c1c(NC(=O)c1ccc(Cl)cc1)nn2C`, the pIC50 is 5.06.
With `COc1ccc(C(=O)ON=C2C=C(C)C(=O)C(C)=C2)cc1`, the IC50 entry was “inactive”.
Regarding `CC(=O)OCC1(C)CN(c2ccccc2)NC1=O` (configuration not stated), the pIC50 was 5.28.
The same measure, in the same setting: the figure for `Cc1cc(NC(=O)c2oc3ccccc3c2C)ccc1-n1cnnn1` is 5.34; for `CC1(C)CC2(CC(c3ccccc3F)c3ccc(O)c(O)c3O2)NC(=S)N1` (configuration not stated) it is 4.89.
Still for that read-out and setting: the figure for `CC(NC1=CC(=O)c2cccnc2C1=O)C(O)c1ccccc1` (configuration not stated) is 5.39; for `CCCCCCCCSC1=CC(=O)C(OC)=C(OC)C1=O` it is 5.77; for `Cc1ccccc1OCC(=O)NCC(=O)OCC(=O)c1ccc([N+](=O)[O-])cc1` it is 4.76.
`CCOc1ccc(S(=O)(=O)Nc2cc(SCC(=O)O)c(O)c3ccccc23)cc1`: the pIC50 was 5.61.
Same read-out and setting: the value for `Oc1cc(-n2cccn2)c(O)cc1-n1cccn1` was 5.22; that for `COc1c(O)ccc2c1CN1CCc3cc4c(cc3C1C2)OCO4` (configuration not stated) was 4.81.
